Read-outs that look alike come from different tables or passages of the source.
Assays:
Test in all cases: microbe, parasite or virus in culture
Format in all cases: cell-based
[1] = test system: HCV 4a Rluc cells (NS5A chimeric genotype 1b Con1 replicon with genotype 4a NS5A gene); conditions: Hepatitis C virus, read-out: 4a
Description: (§1) Evaluation of cell-based anti-HCV activity: Antiviral potency (EC50) was determined using a Renilla luciferase (RLuc)-based HCV replicon reporter assay. To perform the assay for genotype 1 and 2a JFH-1, HCV 1b RLuc cells (harboring a dicistronic genotype 1b Con1 replicon that encodes a RLuc reporter), or HCV 1a RLuc cells (harboring a dicistronic genotype 1a H77 replicon that encodes a RLuc reporter), or HCV 2a JFH-1 Rluc cells (harboring a dicistronic genotype 2a JFH-1 replicon that encodes a RLuc reporter) were dispensed into 384-well plates. To perform the assay for genotype 2a (with M31 present) or 2b, HCV 2a Rluc or 2b Rluc cells (both with M31 present) harboring a dicistronic NS5A chimeric genotype 2a JFH-1 replicon that encodes a RLuc reporter and either genotype 2a J6 strain NS5A gene or genotype 2b MD2b-1 NS5A gene (based on Los Alamos HCV database isolates, both with M31 present) respectively, were dispensed into 384-well plates. To perform the assay for genotype 3 and 4, HCV 3a RLuc or 4a Rluc cells harboring a dicistronic NS5A chimeric genotype 1b Con1 replicon that encodes a RLuc reporter and either a consensus genotype 3a NS5A gene or genotype 4a NS5A gene (based on Los Alamos HCV database isolates) respectively, were dispensed into 384-well plates. Compounds were re-suspended in DMSO at a concentration of 10 mM and serially diluted in DMSO either manually or using an automated pipeting instrument. Serially diluted compounds were mixed with cell culture media and added to the seeded cells. […] 72 hours later, cells were lysed and Renilla luciferase activity quantified as recommended by the manufacturer (Promega-Madison, Wis.). Non-linear regression was performed to calculate EC50 values.

[2] = test system: HCV 2a JFH-1 Rluc cells (dicistronic genotype 2a JFH-1 replicon, RLuc reporter); conditions: Hepatitis C virus, genotype 2a JFH-1 replicon, read-out: 2a JFH
Description: as §1

[3] = test system: HCV 1b RLuc cells (dicistronic genotype 1b Con1 replicon, RLuc reporter); conditions: Hepatitis C virus, read-out: 1b (nM)
Description: as §1

[4] = test system: HCV 1a RLuc cells (dicistronic genotype 1a H77 replicon, RLuc reporter); conditions: Hepatitis C virus, read-out: 1a
Description: as §1

[5] = test system: HCV 3a RLuc cells (NS5A chimeric genotype 1b Con1 replicon with consensus genotype 3a NS5A gene); conditions: Hepatitis C virus
Description: as §1

[6] = 72 h, Table 2, genotype 1a H77 replicon, 72 hours
[7] = read-out: 3a, Table 2, genotype 3a NS5A chimeric replicon
[8] = genotype 1a H77 replicon, RLuc reporter
[9] = read-out: 3a, genotype 3a NS5A chimeric 1b Con1 replicon
[10] = read-out: 3a, genotype 3a replicon

SMILES	EC50 [1]	EC50 ([2]; 72 h, Table 2, 72 hours)	EC50 ([3]; 72 h)	EC50 [4, 6]	EC50 [5, 7]	EC50 ([2]; RLuc reporter)	EC50 [3]	EC50 [4, 8]	EC50 [5, 9]	EC50 [2]	EC50 ([4]; genotype 1a replicon)	EC50 [5, 10]	other results
COC(=O)N[C@H](C(=O)N1CCC[C@H]1c1ncc(-c2ccc3c(c2)CCc2cc(-c4ccc5nc([C@@H]6[C@H]7CC[C@H](C7)N6C(=O)[C@@H](NC(=O)OC)[C@@H](C)OC)[nH]c5c4)ccc2-3)[nH]1)[C@@H](C)OC [Example 76]	1 to 990 pM	1000 to 44000 pM	0.01 nM	1 to 999 pM	1000 to 4990 pM								
COC(=O)N[C@H](C(=O)N1CCC[C@H]1c1ncc(-c2ccc3cc(-c4ccc(-c5cnc([C@@H]6CCCN6C(=O)[C@@H](NC(=O)OC)[C@@H](C)OC)[nH]5)cc4)ccc3c2)[nH]1)C(C)C [Example 240]	1 to 990 pM					1 to 999 pM	0.01 nM	1 to 999 pM	1000 to 4990 pM				
COC(=O)N[C@H](C(=O)N1[C@H]2CC[C@H](C2)[C@H]1c1nc2ccc3cc(-c4ccc5c(ccc6nc([C@@H]7CCCN7C(=O)[C@@H](NC(=O)OC)C7CCOCC7)[nH]c65)c4)ccc3c2[nH]1)C(C)C [Example 338]	1 to 990 pM						0.127 nM			1 to 999 pM	1 to 999 pM	1 to 990 pM	
COC(=O)N[C@H](C(=O)N1CCC[C@H]1c1nc2ccc3cc(-c4ccc5c(c4)CCc4nc([C@@H]6[C@H]7CC[C@H](C7)N6C(=O)[C@@H](NC(=O)OC)[C@@H](C)OC)[nH]c4-5)ccc3c2[nH]1)C(C)C [Example 88]	1 to 990 pM	1 to 999 pM	0.019 nM	1 to 999 pM	1 to 990 pM								
COC(=O)N[C@H](C(=O)N1CCC[C@H]1c1nc2ccc3cc(C#Cc4ccc(-c5cnc([C@@H]6CCCN6C(=O)[C@H](NC(=O)OC)c6ccccc6)[nH]5)cc4)ccc3c2[nH]1)C1CCOCC1 [Example 208]	1 to 990 pM					1 to 999 pM	0.009 nM	1 to 999 pM	1 to 990 pM				
COC(=O)N[C@H](C(=O)N1CCC[C@H]1c1ncc(-c2ccc3c(c2F)COc2c-3ccc(-c3cnc([C@@H]4CCCN4C(=O)[C@@H](NC(=O)OC)C(C)C)[nH]3)c2F)[nH]1)C(C)C [Example 330]	1 to 990 pM						0.006 nM			1 to 999 pM	1 to 999 pM	1 to 990 pM	
COC(=O)N[C@H](C(=O)N1CCC[C@H]1c1ncc(-c2ccc3c(c2)CCc2cc(-c4cnc([C@@H]5[C@H]6CC[C@H](C6)N5C(=O)[C@@H](NC(=O)OC)[C@@H](C)OC)[nH]4)ccc2-3)[nH]1)C(C)C [Example 93]	1 to 990 pM	1 to 999 pM	0.023 nM	1 to 999 pM	1 to 990 pM								
COC(=O)N[C@H](C(=O)N1CCC[C@H]1c1nc2ccc3cc(-c4ccc5cc(-c6cnc([C@@H]7CCCN7C(=O)[C@H](NC(=O)N7CCOCC7)c7ccccc7)[nH]6)ccc5c4)ccc3c2[nH]1)C(C)C [Example 288]	1 to 990 pM					1 to 999 pM	0.009 nM	1 to 999 pM	1 to 990 pM				
COC(=O)N[C@H](C(=O)N1CCC[C@H]1c1ncc(-c2ccc3c(c2)C(F)(F)c2cc(-c4ccc5nc([C@@H]6[C@H]7CC[C@H](C7)N6C(=O)[C@H](NC(=O)OC)c6ccccc6)[nH]c5c4)ccc2-3)[nH]1)C(C)C [Example 40]	1 to 990 pM	1 to 999 pM	0.005 nM	1 to 999 pM	1000 to 4990 pM								
COC(=O)N[C@H](C(=O)N1CCC[C@H]1c1ncc(-c2ccc3c4ccc(-c5cnc([C@@H]6CCCN6C(=O)[C@@H](NC(=O)OC)[C@@H](C)OC)[nH]5)cc4c4ccccc4c3c2)[nH]1)[C@@H](C)OC [Example 310]	1 to 990 pM						0.041 nM			1 to 999 pM	1 to 999 pM	1 to 990 pM	
COC(=O)N[C@H](C(=O)N1CCC[C@H]1c1ncc(-c2ccc3c(c2)CCc2cc(-c4cnc([C@@H]5[C@H]6CC[C@H](C6)N5C(=O)[C@@H](NC(=O)OC)C5CCOCC5)[nH]4)ccc2-3)[nH]1)C1CCOCC1 [Example 79]	1 to 990 pM	1 to 999 pM	0.231 nM	1 to 999 pM	1 to 990 pM								
COC(=O)N[C@H](C(=O)N1CC2(C[C@H]1c1ncc(-c3ccc(-c4ccc5c(ccc6nc([C@@H]7CCCN7C(=O)[C@H](NC(=O)OC)c7ccccc7)[nH]c65)c4)cc3)[nH]1)OCCO2)C(C)C [Example 354]	1 to 990 pM						0.031 nM			1 to 999 pM	1 to 999 pM	1 to 990 pM	
COC(=O)N[C@H](C(=O)N1CCC[C@H]1c1nc2c([nH]1)-c1ccc(-c3ccc4cc(-c5cnc([C@@H]6CCCN6C(=O)[C@H](NC(=O)CC6CCOCC6)c6ccccc6)[nH]5)ccc4c3)cc1CC2)C(C)C [Example 273]	1 to 990 pM					1 to 999 pM	0.042 nM	1 to 999 pM	1 to 990 pM				
COC(=O)N[C@H](C(=O)N1CCC[C@H]1c1nc2c3ccccc3c3cc(-c4ccc(-c5cnc([C@@H]6CCCN6C(=O)[C@@H](NC(=O)OC)[C@@H](C)OC)[nH]5)cc4)ccc3c2[nH]1)C(C)C [Example 301]	1 to 990 pM						0.019 nM			1000 to 44000 pM	1000 to 44000 pM	1000 to 4990 pM	
COC(=O)N[C@H](C(=O)N1CCC[C@H]1c1ncc(-c2ccc3cc(-c4ccc(-c5cnc([C@@H]6[C@@H]7CC[C@@H](C7)N6C(=O)[C@@H](NC(=O)OC)C(C)C)[nH]5)cc4)ccc3c2)[nH]1)C(C)C [Example 52]	1 to 990 pM	1000 to 44000 pM	0.009 nM	1 to 999 pM	1000 to 4990 pM								
COC(=O)N[C@H](C(=O)N1[C@@H]2C[C@@H]2C[C@H]1c1nc2ccc3cc(-c4ccc(-c5cnc([C@@H]6[C@H]7CC[C@H](C7)N6C(=O)[C@@H](NC(=O)OC)C6CCOCC6)[nH]5)c(F)c4)ccc3c2[nH]1)C(C)C [Example 320]	1 to 990 pM						0.01 nM			1 to 999 pM	1 to 999 pM	1 to 990 pM	
COC(=O)N[C@H](C(=O)N1CCC[C@H]1c1nc(Cl)c(-c2ccc(-c3ccc4cc(-c5[nH]c([C@@H]6CCCN6C(=O)[C@@H](NC(=O)OC)C(C)C)nc5Cl)ccc4c3)cc2)[nH]1)C(C)C [Example 380]	1 to 990 pM						0.006 nM			1 to 999 pM	1 to 999 pM	> 5000 pM	
COC(=O)NC(C(=O)N1CCC[C@H]1c1ncc(-c2ccc(-c3ccc4cc(-c5cnc([C@@H]6CCCN6C(=O)C(NC(=O)OC)C(C)C)[nH]5)ccc4c3)cc2)[nH]1)C(C)C (some centres unmarked) [Example 136]	1 to 990 pM					1 to 999 pM	0.005 nM	1 to 999 pM	1 to 990 pM				
COC(=O)N[C@H](C(=O)N1[C@@H]2CC[C@@H](C2)[C@H]1c1ncc(-c2ccc(-c3ccc4cc(-c5cnc([C@@H]6CCCN6C(=O)[C@H](NC(=O)OC)c6ccccc6)[nH]5)ccc4c3)cc2)[nH]1)C1CCOCC1 [Example 71]	1 to 990 pM	1 to 999 pM	0.013 nM	1 to 999 pM	1 to 990 pM								
COC(=O)NC(C(=O)N1CCC[C@@H]1c1ncc(-c2cc3c4c(c2)OCc2cc(-c5cnc([C@@H]6CCCN6C(=O)[C@@H](NC(=O)OC)C(C)C)[nH]5)cc(c2-4)OC3)[nH]1)C(C)C (some centres unmarked) [Example 10]	1 to 990 pM		0.406 nM										EC50 ([2]; 72 h, Table 1, 72 hours): 1 to 999 pM; EC50 ([4]; 72 h, Table 1, genotype 1a H77 replicon, 72 hours): 1000 to 44000 pM; EC50 ([5]; read-out: 3a, Table 1, genotype 3a NS5A chimeric replicon): 1 to 990 pM
COC(=O)N[C@H](C(=O)N1CC(F)(F)C[C@H]1c1ncc(-c2ccc(-c3ccc4cc(-c5cnc([C@@H]6CCCN6C(=O)[C@H](NC(=O)OC)c6ccccc6)[nH]5)ccc4c3)cc2)[nH]1)C1CCOCC1 [Example 224]	1 to 990 pM					1 to 999 pM	0.008 nM	1 to 999 pM	1 to 990 pM				
COC(=O)N[C@H](C(=O)N1CCC[C@H]1c1ncc(-c2ccc3cc(-c4ccc(-c5cnc([C@@H]6CCCN6C(=O)[C@@H](N)C6CCSCC6)[nH]5)cc4)ccc3c2)[nH]1)C(C)C [Example 277]	1000 to 4990 pM					> 44000 pM	1.06 nM	1000 to 44000 pM	> 5000 pM				

Reference: US10344019B2 (priority 2010, dated 2019)
